Reference: article PMC9259545, “Impact of poly-arginine peptides R18D and R18 on alteplase and tenecteplase thrombolysis in vitro, and neuroprotective stability to proteolysis” (Journal of Thrombosis and Thrombolysis, 2022)
Non-standard residues stand in square brackets, D forms with d. Residues, ends and D or L forms follow the SMILES beside them.

Tests used:
tPA or TNK = type: biochemical, human; conditions: range over peptide concentrations 0.25-16 µM and both thrombolytics; 1-h assay
Description: (§1) We utilised a high throughput 96-well plate thrombolysis assay (“halo clot assay”) based on the procedure developed by Bonnard et al.. To reduce assay components the halo thrombus formation procedure was modified by replacing the original thrombotic mixture consisting of recombinant tissue factor and synthetic phospholipids reconstituted in 30 mM calcium, with thrombin, and reducing the pro-thrombotic volume (i.e., thrombin) from 5 to 3 µL and blood volume from 25 to 12 µL. Another modification to simplify clot formation consisted of adding the thrombin (3 µL; 500 nM in saline) to one side of the well and 12 µL of blood to the opposite side of well, before using a heat stretched Pasteur pipette with sealed end to mix the two liquids together using 4 to 5 circular motions around the edge of the well (halo clot). The original methodology involved adding the 5 μL of the clotting mixture to the edge of the well, and then using a micropipette to slowly release the 25 μL of blood to the edge of the well while at the same time maintaining a circular motion. Plates were incubated in a humidified 37 °C incubator for 1 h before use in the thrombolysis assay.
(§2) The thrombolysis assay involved adding 30 µL of Tris buffer (50 mM Tris–HCl, 100 mM NaCl, pH 7.4) with or without peptide followed by 55 µL Tris buffer containing tPA or TNK (5 nM final concentration) and 50% human plasma (final plasma concentration during thrombolysis 27.5%). The final concentration of peptide during thrombolysis ranged from 0.25 to 16 µM (note: an intravenous dose of R18D at 350 nmol/kg, which is likely to be neuroprotective achieves a Cmax of 0.7–0.9 µM in healthy male and female rats; unpublished observation). […] Following the addition of tPA or TNK into the wells, clot lysis was monitored over a 1-h period at 37 °C using a plate reader (Cytation5, BioTek, USA) by measuring absorbance at 510 nm every 1 min immediately after orbital shaking (205 rpm for 5 s). Controls consisted of wells with no thrombin (100% clot lysis; L100%) and wells with no tPA or TNK (0% clot lysis; L0%). At the 1-h time point, the percentage of thrombolysis (%T) in tPA or TNK treated samples (LTX) was calculated by transforming absorbance values based on the formula: % T = (LTX) − (L0%)/(L100%) − (L0%) × 100. In addition, during the 1-h period of clot lysis lag time and maximal activity (also known as maximum velocity or Vmax) of the thrombolysis reaction were calculated. The lag time is defined as the time interval between the first absorbance reading (time = 0) and the line of maximum slope of the thrombolysis reaction. The maximal activity is calculated from the maximum slope over the time course of the assay and reflects the capacity of an enzyme to catalyse a reaction (i.e., thrombolysis), with higher values representing higher catalytic activity (i.e., tPA/TNK induced plasmin thrombolysis).
For each thrombolysis assay, replicates for control wells (L0% and L100%) and tPA or TNK only treated wells consisted of n = 4–8. Replicates for tPA or TNK and peptide treated wells consisted of n = 4. For data analysis and graphical representations of the results, data from three independent thrombolytic assays were pooled. Studies consisted of R18D, R18 and NA-1 examined at the 0.5, 1, 2, 4, 8 or 16 µM concentrations performed concurrently on the same 96-well plate, in respective order. […]

[1] = in the order; 8 (NA-1), unpublished data (R18D); cited from earlier work
Excerpt: It is important to mention that the results obtained in this study are likely to overestimate any negative effects of R18D, R18 and NA-1 on tPA/TNK lag time and thrombolysis compared with what would occur clinically for several reasons. Firstly, positively charged peptides administered directly into the circulation would have a larger pool of negatively charged plasma proteins such as albumin to bind, and thus reduce any inhibitory electrostatic effects of the peptides on lag time and thrombolysis. In addition, the in vitro thrombolysis assay used in this study was performed in 27.5% plasma wh ...

[2] = intravenous dose 350 nmol/kg, healthy male and female rats; ref unpublished observation; cited from earlier work
plasmin = conditions: cited from earlier work
Excerpt: Given the potential future application of the R18D, R18 and NA-1 peptides as ischaemic stroke neurotherapeutics, it is important to establish if they interfere with current and future standard of care treatments, namely alteplase (tPA; recombinant tissue plasminogen activator) and tenecteplase (TNK; a modified version of tPA) thrombolysis, which are routinely administered prior to thrombectomy. […] NA-1 is also degraded by plasmin [8]. Together, these findings confirm that peptides synthesised with D-enantiomer amino acids such as R18D, unlike peptides synthesised with L-enantiomer amino acids are highly resistant to proteolytic degradation and are likely to retain their neuroprotective efficacy ...

tPA = molecular target: T1, tPA (Homo sapiens, UniProt P00750); test: Halo clot thrombolysis assay, tPA thrombolysis of whole blood clots; type: biochemical; conditions: tPA 5 nM, 27.5% human plasma
T1 construct: purchased Boehringer Ingelheim, Germany 10 mg vial
T1 sequence (P00750 36-562): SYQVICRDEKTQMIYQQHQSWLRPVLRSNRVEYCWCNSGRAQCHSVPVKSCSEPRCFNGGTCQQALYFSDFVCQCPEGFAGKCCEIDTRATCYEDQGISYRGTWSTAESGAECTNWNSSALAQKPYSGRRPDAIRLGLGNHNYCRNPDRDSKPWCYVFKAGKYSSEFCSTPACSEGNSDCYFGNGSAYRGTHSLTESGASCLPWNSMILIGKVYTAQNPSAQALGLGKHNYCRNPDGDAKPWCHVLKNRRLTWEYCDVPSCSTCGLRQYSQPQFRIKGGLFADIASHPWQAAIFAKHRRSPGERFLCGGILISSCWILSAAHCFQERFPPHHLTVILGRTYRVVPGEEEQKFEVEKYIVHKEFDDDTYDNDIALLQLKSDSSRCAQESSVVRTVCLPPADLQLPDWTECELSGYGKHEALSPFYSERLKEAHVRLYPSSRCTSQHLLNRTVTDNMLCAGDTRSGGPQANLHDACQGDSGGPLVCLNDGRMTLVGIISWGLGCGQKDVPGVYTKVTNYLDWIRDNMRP
Description: as §1, §2
For each thrombolysis assay, replicates for control wells (L0% and L100%) and tPA or TNK only treated wells consisted of n = 4–8. Replicates for tPA or TNK and peptide treated wells consisted of n = 4. For data analysis and graphical representations of the results, data from three independent thrombolytic assays were pooled. Studies consisted of R18D, R18 and NA-1 examined at the 0.5, 1, 2, 4, 8 or 16 µM concentrations performed concurrently on the same 96-well plate, in respective order. In addition, since R18D is known to be resistant to plasmin degradation and appeared to have the most impact on tPA or TNK thrombolysis, a separate set of three independent assays were performed for this peptide alone at concentrations of 0.25, 0.5, 1, 2, 4, 8 or 16 µM. Furthermore, the second dose study with R18D provided the opportunity to include a lower concentration (0.25 µM) of the peptide and to provide comparative data when only one peptide was examined in the thrombolysis assay per 96-well plate as opposed to examining the three peptides concurrently on the same plate. […]

trypsin (TrypLE Express) = trypsin (TrypLE Express) (Fusarium oxysporum, UniProt P35049)
Sequence of trypsin (TrypLE Express) (P35049 25-248): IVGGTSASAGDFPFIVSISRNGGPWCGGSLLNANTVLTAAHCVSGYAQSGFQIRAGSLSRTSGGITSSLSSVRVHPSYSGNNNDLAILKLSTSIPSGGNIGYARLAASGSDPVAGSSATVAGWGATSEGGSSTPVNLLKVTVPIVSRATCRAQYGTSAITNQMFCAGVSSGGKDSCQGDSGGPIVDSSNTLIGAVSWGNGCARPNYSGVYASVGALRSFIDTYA
Description: Rat primary cortical cultures were established from embryonic day 18–19 Sprague–Dawley rats (Animal Resources Centre, WA, Australia). Briefly, cortical tissue was dissociated in 2 mL Hanks balanced salt solution (HBBS; Life Technologies, Australia) supplemented with 1.3 mM L-cysteine, 10 U/mL papain (Sigma-Aldrich, Australia) and 50 U/mL DNase (Sigma-Aldrich) by trituration with a fire-polished pipette. Dissociated neurons were transferred to a 15-mL tube containing 13 mL of cold Dulbecco’s modified Eagle’s medium (DMEM; Life Technologies)/10% horse serum (Life Technologies) and centrifuged for 4 min at 300×g. Neurons were gently resuspended in 1.5 mL of cold Neurobasal (NB; Life Technologies)/2% B27 supplement (B27; Life Technologies) and the neuronal cell concentration adjusted to 50,000 neurons/70 μL and 70 μL inoculated into each well of a 96-well microtiter plate (Nunc, USA) pre-treated wells. Pre-treated wells were coated with 50 μL of poly-D-lysine (50 μg/mL; 70–150 K; Sigma-Aldrich) for 2–3 h at room temperature before being replaced with 50 μL of NB/B27, 4% fetal bovine serum (Life Technologies), 1% horse serum, 62.5 μM glutamic acid, 25 μM 2-mercaptoethanol, 30 μg/mL penicillin and 50 μg/mL streptomycin and placed in a CO2 incubator (5% CO2, 95% air balance, 98% humidity, 37 °C) prior to seeding with neurons. Neuronal cultures were maintained in CO2 incubator. On day in vitro four, 60 µL fresh NB/B27 containing the mitotic inhibitor cytosine arabinofuranoside (final concentration 0.15 μM; Sigma-Aldrich) was added and neuronal culture were used on day in vitro 11 to 13.
As an alternative to trypsin, TrypLE Express (Thermo Fischer Scientific, Australia) a synthetic serine protease with trypsin-like activity was used. […] Hereafter, TrypLE Express is referred to as trypsin.
Trypsin solution was added to an equal volume of MEM/2% B27 (T:MEM/B27). […] Following the incubation, 50 µL of the T:MEM/B27 or HBSS:MEM/B27 peptide solution was used to treat neuronal culture as described below for the glutamic acid excitotoxicity model. […]

[3] = separate dose study, R18D alone, 0.25-16 µM

N=C(N)NCCC[C@@H](N)C(=O)N[C@H](CCCNC(=N)N)C(=O)N[C@H](CCCNC(=N)N)C(=O)N[C@H](CCCNC(=N)N)C(=O)N[C@H](CCCNC(=N)N)C(=O)N[C@H](CCCNC(=N)N)C(=O)N[C@H](CCCNC(=N)N)C(=O)N[C@H](CCCNC(=N)N)C(=O)N[C@H](CCCNC(=N)N)C(=O)N[C@H](CCCNC(=N)N)C(=O)N[C@H](CCCNC(=N)N)C(=O)N[C@H](CCCNC(=N)N)C(=O)N[C@H](CCCNC(=N)N)C(=O)N[C@H](CCCNC(=N)N)C(=O)N[C@H](CCCNC(=N)N)C(=O)N[C@H](CCCNC(=N)N)C(=O)N[C@H](CCCNC(=N)N)C(=O)N[C@H](CCCNC(=N)N)C(=O)O [R18D] (H-[dR][dR][dR][dR][dR][dR][dR][dR][dR][dR][dR][dR][dR][dR][dR][dR][dR][dR]-OH)
Increase in lag time (time to the commencement of thrombolysis) (tPA or TNK): 0 to 9.9 min
In vivo peak plasma concentration [1]: 1 to 5 µM
Plasma half-life [1]: 5 to 15 min
Cmax [2]: 0.7 to 0.9 µM
Neuroprotective properties in the glutamic acid excitotoxicity injury model when pre-incubated with plasmin (plasmin): retains its neuroprotective properties
Sensitivity to proteolytic degradation by plasmin (plasmin): not
Effect on tPA thrombolysis maximal activity vs tPA control (tPA; concurrent study, 0.5-16 µM peptide): did not significantly impact tPA thrombolysis maximal activity
Increase in tPA lag time (tPA; peptide 16 µM, concurrent study, 37 °C): 5.85 min
Effect on tPA lag time vs tPA control (tPA; [3]): did not significantly affect tPA lag time at any concentration
Effect on tPA thrombolysis maximal activity vs tPA control (tPA; [3]): did not significantly impact tPA thrombolysis maximal activity at any concentration
Effect on percentage tPA thrombolysis at 1 h vs tPA control (tPA; separate dose study, R18D alone, 0.25-16 µM, 37 °C, three independent assays): did not inhibit tPA thrombolysis
Effect on percentage tPA thrombolysis at 1 h vs tPA control (tPA; three peptides concurrently on the same plate, 0.5-16 µM peptide, Tris pH 7.4, 37 °C, absorbance 510 nm, three independent assays pooled, n = 4, Dunnett's test): did not significantly inhibit thrombolysis
Resistance to degradation by trypsin (trypsin (TrypLE Express)): resistant to degradation by trypsin
High-level neuroprotective efficacy after incubation with trypsin (trypsin (TrypLE Express); peptide 2 µM in 50% TrypLE Express : MEM/B27, 1 or 2 h or overnight (22-24 h), 37 °C CO2 incubator, then rat cortical neurons, glutamic acid 100 µM 5 min, MTS viability at 20-24 h, N = 4-8): displayed a high-level neuroprotective efficacy
